Laboratory results as given in US12349673B2, “Emulsifiable concentrates” (priority 2018, dated 2025).

Key:
Type in all cases: physicochemical
[1] = Method A: solubility of active ingredient in solvent by NMR spectroscopy of a saturated solution; settings: for Active Ingredient Solubility: 2,4-D Acid: 2,4-dichlorophenoxyacetic acid dissolved in the named solvent; for Active Ingredient Solubility: MCPA: 2-methyl-4-chlorophenoxyacetic acid dissolved in the named solvent; for Active Ingredient Solubility: NBPT: N-(n-butyl)thiophosphoric triamide dissolved in the named solvent; for Active Ingredient Solubility: Bifenthrin: bifenthrin dissolved in the named solvent; for Active Ingredient Solubility: Dicamba Acid: dicamba acid dissolved in the named solvent; for Active Ingredient Solubility: Nitrapyrin: nitrapyrin dissolved in the named solvent; for Active Ingredient Solubility: Tebuconazole: tebuconazole dissolved in the named solvent
Experimental: (§1) The solubilities of active ingredients in the Ether Ketone Solvents and Comparative Solvents are determined on a saturated solution of a given active ingredient in a given solvent using NMR spectroscopy (Method A, as described below), or by visual evaluation of a concentration ladder of a given active ingredient in a given solvent (Method B, as described below).
Method A: Solubility Determination by NMR Spectroscopy
A saturated solution of a given active ingredient in a solvent is prepared by initially combining the active ingredient (0.8 g) and solvent (1.5 mL) in a vial and stirring vigorously for at least 24 hours. If a homogeneous solution is obtained, additional active ingredient is added until a significant amount of solid remains out of solution. The mixtures (˜0.25 mL) are then filtered with a PTFE syringe filter (0.45 μm) into an NMR tube that contained C6D6 (0.5 mL). The NMR tubes are capped and analyzed on Varian 400 NMR spectrometer equipped with an auto sampler. Proton NMR spectra are referenced to the residual proton peak in the deuterated solvent. Spectra used for quantitation are collected with a 180 second delay between pulses. Spectra are processed in MestReNova (version 11.0.4-18998) by baseline (Bernstein Polynomials) and phase correcting each spectrum followed by integration of all well-resolved solvent and active resonances. Active ingredient weight percentages are estimated by the following formula:
(§2) [formula] When possible, several well-resolved peaks are used for both solvent and active ingredient, and averaged to provide an estimation of variability in the measurement. Method B: Solubility Determination by Visual Evaluation

[2] = Solubility of Ether Ketone Solvent in water (dropwise addition, weighing); settings: lab temperature 30° C.
Experimental: The solubilities of certain of the Ether Ketone Solvents in water are determined by adding water (˜10 to 50 grams) to a tared vial equipped with a stir bar. The weights of water are noted. The specified solvent is added dropwise using a 10 μL syringe until the mixture appeared to have solvent droplets suspended in the water. The mixture is weighed again and the weight percent solubility of the Ether Ketone Solvent in water is calculated.
(§3) The solubilities of water in certain of the Ether Ketone Solvents are also evaluated. A vial is charged with 5 grams of the specified solvent, and 3 Å activated molecular sieves (˜300 mg) are added. The vial is capped and the solvent left to dry for several days. The mixtures are filtered using a 0.2 μm syringe filter into a tared 20 mL vial and the weights are noted. Water is then added using a 10 μL syringe until the mixture appeared to have water droplets on the bottom of the vial. The mixture is weighed again and the weight percent solubility of water in the Ether Ketone solvent is calculated. The temperature in the lab is 30° C. at the time of the water solubility measurements.

[3] = Solubility of water in Ether Ketone Solvent (dropwise addition, weighing); settings: water in dried solvent; lab temperature 30° C.
Experimental: as §3

[4] = Method B: solubility of active ingredient in solvent by visual evaluation of a concentration ladder; settings: Method B (visual, 24 hours, 21° C.); for Active Ingredient Solubility: 2,4-D Acid: 2,4-dichlorophenoxyacetic acid dissolved in the named solvent; for Active Ingredient Solubility: MCPA: 2-methyl-4-chlorophenoxyacetic acid dissolved in the named solvent; for Active Ingredient Solubility: NBPT: N-(n-butyl)thiophosphoric triamide dissolved in the named solvent; for Active Ingredient Solubility: Bifenthrin: bifenthrin dissolved in the named solvent; for Active Ingredient Solubility: Tebuconazole: tebuconazole dissolved in the named solvent
Experimental: as §1, §2
Four-milliliter (mL) vials are charged with active ingredient (10 to 50 wt %), a stir bar, and solvent (90 to 50 wt %). The vials are capped and taped to seal. The vials are secured in a vial rack and shaken on a laboratory shaker for 24 hours at ambient lab temperature of 21° C. and 51% humidity. After 24 hours each sample set is evaluated for solubility of solid.

SMILES	Active Ingredient Solubility: 2,4-D Acid [1] [wt %]	Active Ingredient Solubility: MCPA [1] [wt %]	Active Ingredient Solubility: NBPT [1] [wt %]	Active Ingredient Solubility: Bifenthrin [1] [wt %]	Active Ingredient Solubility: Dicamba Acid [1] [wt %]	Active Ingredient Solubility: Nitrapyrin [1] [wt %]	Active Ingredient Solubility: Tebuconazole [1] [wt %]	Solubility In Water [2] [wt %]	Solubility Water In [3] [wt %]	Active Ingredient Solubility: 2,4-D Acid [4] [wt %]	Active Ingredient Solubility: MCPA [4] [wt %]	Active Ingredient Solubility: NBPT [4] [wt %]	Active Ingredient Solubility: Bifenthrin [4]	Active Ingredient Solubility: Tebuconazole [4] [wt %]
CCCCCCOCC(CC)OCC(=O)CC (stereo not drawn) [DBnH Ketone, 1-((1-(Hexyloxy)-2-butanyl)oxy)-2-butanone]	10.9	17.2	10.5	33.8	42.5	39.8	11.2							
CCCCCOCC(C)OCC(C)=O (stereo not drawn) [DPnPent Ketone, 1-((1-(Pentyloxy)-2-propanyl)oxy)-2-propanone]	15.0	22.0	24.4	31.8	48.7	41.8	12.0							
CCCCOCC(CC)OCC(=O)CC (stereo not drawn) [DBnB Ketone, 1-((1-Butoxy-2-butanyl)oxy)-2-butanone]	13.2	17.1	15.7	34.7	45.6	42.6	10.5							
CCCCCCCCOCC(C)=O [PnO Ketone, 1-Octyloxy-2-propanone]	12.6	17.1	15.9	35.4	40.6	42.9	12.5							
CCCCOCC(C)OCC(C)=O (stereo not drawn) [DPnB Ketone, 1-((1-(Butoxy)-2-propanyl)oxy)-2-propanone]	18.3	23.7	25.5	33.4	52.7	45.4	15.0	0.20	0.03					
CCCCCOCC(C)=O [PnPent Ketone, 1-Pentyloxy-2-propanone]	17.3	22.9	24.2	40.2	49.1	49.0	16.7							
CCCCCCOCC(C)OCC(C)=O (stereo not drawn) [DPnH Ketone, 1-((1-(Hexyloxy)-2-propanyl)oxy)-2-propanone]	16.4	22.1	25.3	35.5	48.4	39.0	12.5	0.22	0.03					
CCCCCCOCC(=O)CC [BnH Ketone, 1-Hexyloxy-2-butanone]	12.8	17.5	13.6	37.3	42.5	46.2	13.5	0.22	0.02					
CCCCOCC(=O)CC [BnB Ketone, 1-Butoxy-2-butanone]	15.6	21.6	21.0	42.6	48.9	55.0	16.9	0.43	0.11					
O=C1CCCCC1 [Cyclohexanone]					62.4	65.2				<40	<50	<50	Sol. at 50 wt %	<50
CCCCOCC(C)OCC(C)OCC(C)=O (stereo not drawn) [TPnB Ketone, 1-((1-((1-Butoxy-2-propanyl)oxy)-2-propanyl)oxy)-2-propanone]	16.3	22.5	22.1	13.0	49.7	37.0	10.8							
CCCCCCCCOCC(=O)CC [BnO Ketone, 1-Octyloxy-2-butanone]	10.2	15.3	10.0	33.9	36.5	41.6	12.0							
CC(=O)c1ccccc1 [Acetophenone]					49.8	55.4				<30	<30	<30	<50 wt %	<30
CCCCOCC(C)=O [PnB Ketone, 1-Butoxy-2-propanone]	20.2	26.8	32.8	43.3	54.0	53.4	25.1	0.20	0.005					
